Values joined by “and” are separate entries in the source; they are usually repeats but may differ in a detail not shown here. Equal values may be shown once.
Assays:
[1] = system: bone marrow cells from wildtype C57BL/6 mice (M-MDSCs, dendritic cells); type: cell-based; details: 72 h, KR158 glioma conditioned media
[2] = target: STAT3; test: pSTAT3 inhibition IC50, STAT3 luciferase reporter assay; type: cell-based, human; details: THP-1STAT3-Luc cells, 72 h treatment, then IL-6 stimulation 5 h, luminescence
[3] = system: THP-1STAT3-Luc cells; details: 72 h, concentration beyond 1.23 μg/mL
[4] = cited from earlier work
[5] = in water at a concentration equivalent to 10 mg/mL of LLL12

SMILES: NS(=O)(=O)c1cccc2c1C(=O)c1cccc(O)c1C2=O [LLL12]
- Ly6C+ M-MDSC population compared to vehicle control ([1]; 0.4 μg/mL and 0.04 μg/mL): statistically significant reduction
- CD86+ cells (APC activation) ([1]; 0.004-0.4 μg/mL): dose-dependent increase
- CD11c expression (CD11c+ cells) compared to vehicle ([1]; highest concentration (0.4 μM)): statistically significant increase
- IC50 of STAT3 inhibition [2]: 0.31 ± 0.05 µg/mL and 0.307 µg/mL
- Cell death [3]: ~100%
- LogP [4]: 2.596
- Water solubility (visual) [5]: poorly soluble

Reference: PMC12820809 (Biomacromolecules, 2025)
